In patent US20250145665A1, “MACROCYCLIC PEPTIDES USEFUL AS MODULATORS OF TNF ALPHA” (Bristol-Myers Squibb Company, priority 2023, published 2025):
Starred links: 1 amine or outer side, 2 acyl side, 3 side chain; linkers in the order of their positions; H or OH if unused. Positions of bridges follow the written chain, without caps; N, C: chain ends. Non-standard residues stand in square brackets, D forms with d. Residues, ends and D or L forms follow the SMILES beside them. *: point of attachment. X84 = O=C(Oc1cccc(-c2ccc(C[C@H](N[*:1])C(=O)[*:2])cc2)c1)c1csc(-c2ccncc2)n1; X78 = O=C(Nc1ccc(-c2ccc(C[C@H](N[*:1])C(=O)[*:2])cc2)cc1)c1n[nH]c2ccccc12; X5 = Cn1nc(C(=O)Nc2ccc(-c3ccc(C[C@H](N[*:1])C(=O)[*:2])cc3)cc2)c2ccccc21; X9 = Cn1nc(C(=O)Nc2cccc(-c3ccc(C[C@H](N[*:1])C(=O)[*:2])cc3)c2)c2cccnc21; X17 = O=C(Nc1cccc(-c2ccc(C[C@H](N[*:1])C(=O)[*:2])cc2)c1)c1coc2ccccc12; X47 = O=C(Nc1ccc(-c2ccc(C[C@H](N[*:1])C(=O)[*:2])cc2)cc1)c1coc2ccccc12; Bip(4'-NH) = O=C([C@H](Cc1ccc(-c2ccc(N[*:3])cc2)cc1)N[*:1])[*:2]; Bip(4'-CONHMe) = CNC(=O)c1ccc(-c2ccc(C[C@H](N)C(=O)O)cc2)cc1; Indazole3carbonyl(1-CH2COOH) = O=C(O)Cn1nc(C(=O)*)c2ccccc21; Bip(4'-COOH) = N[C@@H](Cc1ccc(-c2ccc(C(=O)O)cc2)cc1)C(=O)O; Bip(4'-NHAc) = CC(=O)Nc1ccc(-c2ccc(C[C@H](N)C(=O)O)cc2)cc1; Ala(morpholin-4-yl) = N[C@@H](CN1CCOCC1)C(=O)O; Phe(3-CONH2) = NC(=O)c1cccc(C[C@H](N)C(=O)O)c1; Bip = N[C@@H](Cc1ccc(-c2ccccc2)cc1)C(=O)O; 2Pal = N[C@@H](Cc1ccccn1)C(=O)O; Tic = O=C(O)[C@@H]1Cc2ccccc2CN1; Cha = N[C@@H](CC1CCCCC1)C(=O)O; Tle = CC(C)(C)[C@H](N)C(=O)O; Aze = O=C(O)[C@@H]1CCN1; Sar = CNCC(=O)O

Target: TNFα (Homo sapiens, UniProt P01375)
Sequence (P01375 77-233 limits assumed): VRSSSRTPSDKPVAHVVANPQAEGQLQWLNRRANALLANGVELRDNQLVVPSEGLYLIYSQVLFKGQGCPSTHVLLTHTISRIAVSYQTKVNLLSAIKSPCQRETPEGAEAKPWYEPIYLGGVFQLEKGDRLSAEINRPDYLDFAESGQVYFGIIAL
Test: TNF-Induced HEK-Blue Assay
Format: cell-based
Conditions: not given

| SMILES | IC50 |
| --- | --- |
| CC(C)C[C@@H]1NC(=O)[C@H](CCCNC(=N)N)NC(=O)[C@H](C(C)C)NC(=O)[C@@H]2CCCN2C(=O)[C@H](C(C)C)NC(=O)[C@@H](CCCNC(=N)N)NC(=O)[C@H](CC(=O)O)NC(=O)[C@@H]2CCCN2C(=O)CN(C)C(=O)[C@H](Cc2ccc(-c3ccc(NC(=O)c4nn(CC(=O)O)c5ccccc45)cc3)cc2)NC(=O)[C@H](Cc2ccc(-c3ccccc3)cc2)NC(=O)[C@H](CN2CCOCC2)NC(=O)CSC[C@@H](C(=O)NCC(N)=O)NC1=O [Example 333] ({CH2CO}-[Ala(morpholin-4-yl)][Bip][Bip(4'-NH)](Indazole3carbonyl(1-CH2COOH))[Sar]PD[dR]VPVRLCG-NH2; thioether N-13) | < 50 nM |

Same assay, conditions: HEK-Blue-CD40L cells, NF-kB-driven secreted alkaline phosphatase reporter; TNFα 0.5 ng/ml; 18 h; read-out: TNF induced HEK-Blue assay IC50 value

| SMILES | IC50 |
| --- | --- |
| CC(C)C[C@@H]1NC(=O)[C@H](CCCNC(=N)N)NC(=O)[C@H](C(C)C)NC(=O)[C@@H]2CCCN2C(=O)[C@H](C(C)C)NC(=O)[C@@H](CCCNC(=N)N)NC(=O)[C@H](CC(=O)O)NC(=O)[C@@H]2CCCN2C(=O)CN(C)C(=O)[C@H](Cc2ccc(-c3cccc(OC(=O)c4csc(-c5ccncc5)n4)c3)cc2)NC(=O)[C@H](Cc2ccc(-c3ccccc3)cc2)NC(=O)[C@H](CN2CCOCC2)NC(=O)CSC[C@@H](C(=O)NCC(N)=O)NC1=O [Example 332] ({CH2CO}-[Ala(morpholin-4-yl)][Bip][X84][Sar]PD[dR]VPVRLCG-NH2; thioether N-13) | 200 to 2000 nM |
| CC[C@H](C)[C@@H]1NC(=O)[C@@H]2CCCN2C(=O)[C@H]([C@@H](C)CC)NC(=O)[C@@H](CCCNC(=N)N)NC(=O)[C@H](CC(=O)O)NC(=O)[C@H](Cc2ccccc2)NC(=O)CN(C)C(=O)[C@H](Cc2ccc(-c3ccc(NC(=O)c4nn(C)c5ccccc45)cc3)cc2)NC(=O)[C@H](Cc2ccc(-c3ccc(C(=O)O)cc3)cc2)NC(=O)[C@H](C(C)(C)C)NC(=O)CSC[C@@H](C(=O)NCC(N)=O)NC(=O)[C@H](CC(C)C)NC(=O)[C@H](Cc2cnc[nH]2)NC1=O [Example 334] ({CH2CO}-[Tle][Bip(4'-COOH)][X5][Sar]FD[dR]IPIHLCG-NH2; thioether N-13) | < 50 nM |
| CC[C@H](C)[C@@H]1NC(=O)[C@@H]2CCCN2C(=O)[C@H]([C@@H](C)CC)NC(=O)[C@@H](CCCNC(=N)N)NC(=O)[C@H](CC(=O)O)NC(=O)[C@H](Cc2ccccn2)NC(=O)CN(C)C(=O)[C@H](Cc2ccc(-c3ccc(NC(=O)c4nn(C)c5ccccc45)cc3)cc2)NC(=O)[C@H](Cc2ccc(-c3ccccc3)cc2)NC(=O)[C@H](C(C)(C)C)NC(=O)CSC[C@@H](C(=O)NCC(N)=O)NC(=O)[C@H](CC(C)C)NC(=O)[C@H](Cc2cccc(C(N)=O)c2)NC1=O [Example 335] ({CH2CO}-[Tle][Bip][X5][Sar][2Pal]D[dR]IPI[Phe(3-CONH2)]LCG-NH2; thioether N-13) | 50 to 200 nM |
| CC[C@H](C)[C@@H]1NC(=O)[C@@H](CCCNC(=N)N)NC(=O)[C@H](CC(=O)O)NC(=O)[C@H](Cc2cnc[nH]2)NC(=O)CN(C)C(=O)[C@H](Cc2ccc(-c3ccc(NC(=O)c4nn(C)c5ccccc45)cc3)cc2)NC(=O)[C@H](Cc2ccc(-c3ccc(C(=O)O)cc3)cc2)NC(=O)[C@H](CC2CCCCC2)NC(=O)CSC[C@@H](C(=O)NCC(N)=O)NC(=O)[C@H](CC(C)C)NC(=O)[C@H](Cc2cnc[nH]2)NC(=O)[C@H](C(C)C)NC(=O)[C@@H]2Cc3ccccc3CN2C1=O [Example 336] ({CH2CO}-[Cha][Bip(4'-COOH)][X5][Sar]HD[dR]I[Tic]VHLCG-NH2; thioether N-13) | < 50 nM |
| CC[C@H](C)[C@@H]1NC(=O)[C@@H]2CCN2C(=O)[C@H]([C@@H](C)CC)NC(=O)[C@@H](CCCNC(=N)N)NC(=O)[C@H](CC(=O)O)NC(=O)[C@H](Cc2ccc(O)cc2)NC(=O)CN(C)C(=O)[C@H](Cc2ccc(-c3ccc(NC(=O)c4nn(C)c5ccccc45)cc3)cc2)NC(=O)[C@H](Cc2ccc(-c3ccccc3)cc2)NC(=O)[C@H](C(C)(C)C)NC(=O)CSC[C@@H](C(=O)NCC(N)=O)NC(=O)[C@H](CC(C)C)NC(=O)[C@H](Cc2ccc(O)cc2)NC1=O [Example 337] ({CH2CO}-[Tle][Bip][X5][Sar]YD[dR]I[Aze]IYLCG-NH2; thioether N-13) | 50 to 200 nM |
| CC(C)C[C@@H]1NC(=O)[C@H](CCCNC(=N)N)NC(=O)[C@H](C(C)C)NC(=O)[C@@H]2CCCN2C(=O)[C@H](C(C)C)NC(=O)[C@@H](CCCNC(=N)N)NC(=O)[C@H](CC(=O)O)NC(=O)[C@@H]2CCCN2C(=O)CN(C)C(=O)[C@H](Cc2ccc(-c3ccc(NC(=O)c4nn(C)c5ccccc45)cc3)cc2)NC(=O)[C@H](Cc2ccc(-c3ccccc3)cc2)NC(=O)[C@H](CN2CCOCC2)NC(=O)CSC[C@@H](C(=O)NCC(N)=O)NC1=O [Example 338] ({CH2CO}-[Ala(morpholin-4-yl)][Bip][X5][Sar]PD[dR]VPVRLCG-NH2; thioether N-13) | < 50 nM |
| CC(C)C[C@@H]1NC(=O)[C@H](Cc2ccccn2)NC(=O)[C@H](C(C)C)NC(=O)[C@@H]2CCCN2C(=O)[C@H](C(C)C)NC(=O)[C@@H](CCCNC(=N)N)NC(=O)[C@H](CC(=O)O)NC(=O)[C@H](Cc2ccc(O)cc2)NC(=O)CN(C)C(=O)[C@H](Cc2ccc(-c3ccc(NC(=O)c4nn(C)c5ccccc45)cc3)cc2)NC(=O)[C@H](Cc2ccc(-c3ccc(C(=O)O)cc3)cc2)NC(=O)[C@H](CC2CCCCC2)NC(=O)CSC[C@@H](C(=O)NCC(N)=O)NC1=O [Example 339] ({CH2CO}-[Cha][Bip(4'-COOH)][X5][Sar]YD[dR]VPV[2Pal]LCG-NH2; thioether N-13) | < 50 nM |
| CC(C)C[C@@H]1NC(=O)[C@H](Cc2ccc(O)cc2)NC(=O)[C@H](C(C)C)NC(=O)[C@@H]2CCCN2C(=O)[C@H](C(C)C)NC(=O)[C@@H](CCCNC(=N)N)NC(=O)[C@H](CC(=O)O)NC(=O)[C@@H]2CCCN2C(=O)CN(C)C(=O)[C@H](Cc2ccc(-c3ccc(NC(=O)c4nn(C)c5ccccc45)cc3)cc2)NC(=O)[C@H](Cc2ccc(-c3ccc(C(=O)O)cc3)cc2)NC(=O)[C@H](CC2CCCCC2)NC(=O)CSC[C@@H](C(=O)NCC(N)=O)NC1=O [Example 340] ({CH2CO}-[Cha][Bip(4'-COOH)][X5][Sar]PD[dR]VPVYLCG-NH2; thioether N-13) | < 50 nM |
| CC[C@H](C)[C@@H]1NC(=O)[C@@H](CCCNC(=N)N)NC(=O)[C@H](CC(=O)O)NC(=O)[C@H](Cc2cnc[nH]2)NC(=O)CN(C)C(=O)[C@H](Cc2ccc(-c3ccc(NC(=O)c4nn(C)c5ccccc45)cc3)cc2)NC(=O)[C@H](Cc2ccc(-c3ccccc3)cc2)NC(=O)[C@H](CC2CCCCC2)NC(=O)CSC[C@@H](C(=O)NCC(N)=O)NC(=O)[C@H](CC(C)C)NC(=O)[C@H](Cc2cnc[nH]2)NC(=O)[C@H](C(C)C)NC(=O)[C@@H]2CCCN2C1=O [Example 341] ({CH2CO}-[Cha][Bip][X5][Sar]HD[dR]IPVHLCG-NH2; thioether N-13) | < 50 nM |
| CC[C@H](C)[C@@H]1NC(=O)[C@@H](CCCNC(=N)N)NC(=O)[C@H](CC(=O)O)NC(=O)[C@H](Cc2cnc[nH]2)NC(=O)CN(C)C(=O)[C@H](Cc2ccc(-c3ccc(NC(C)=O)cc3)cc2)NC(=O)[C@H](Cc2ccc(-c3ccc(C(=O)NC)cc3)cc2)NC(=O)[C@H](CC2CCCCC2)NC(=O)CSC[C@@H](C(=O)NCC(N)=O)NC(=O)[C@H](CC(C)C)NC(=O)[C@H](Cc2cnc[nH]2)NC(=O)[C@H](C(C)C)NC(=O)[C@@H]2CCCN2C1=O [Example 342] ({CH2CO}-[Cha][Bip(4'-CONHMe)][Bip(4'-NHAc)][Sar]HD[dR]IPVHLCG-NH2; thioether N-13) | < 50 nM |
| CC(C)C[C@@H]1NC(=O)[C@H](CCCNC(=N)N)NC(=O)[C@H](C(C)C)NC(=O)[C@@H]2CCCN2C(=O)[C@H](C(C)C)NC(=O)[C@@H](CCCNC(=N)N)NC(=O)[C@H](CC(=O)O)NC(=O)[C@@H]2CCCN2C(=O)CN(C)C(=O)[C@H](Cc2ccc(-c3ccc(NC(=O)c4n[nH]c5ccccc45)cc3)cc2)NC(=O)[C@H](Cc2ccc(-c3ccccc3)cc2)NC(=O)[C@H](CN2CCOCC2)NC(=O)CSC[C@@H](C(=O)NCC(N)=O)NC1=O [Example 343] ({CH2CO}-[Ala(morpholin-4-yl)][Bip][X78][Sar]PD[dR]VPVRLCG-NH2; thioether N-13) | < 50 nM |
| CC(C)C[C@@H]1NC(=O)[C@H](CCCNC(=N)N)NC(=O)[C@H](C(C)C)NC(=O)[C@@H]2CCCN2C(=O)[C@H](C(C)C)NC(=O)[C@@H](CCCNC(=N)N)NC(=O)[C@H](CC(=O)O)NC(=O)[C@@H]2CCCN2C(=O)CN(C)C(=O)[C@H](Cc2ccc(-c3cccc(NC(=O)c4coc5ccccc45)c3)cc2)NC(=O)[C@H](Cc2ccc(-c3ccccc3)cc2)NC(=O)[C@H](CN2CCOCC2)NC(=O)CSC[C@@H](C(=O)NCC(N)=O)NC1=O [Example 344] ({CH2CO}-[Ala(morpholin-4-yl)][Bip][X17][Sar]PD[dR]VPVRLCG-NH2; thioether N-13) | < 50 nM |
| CC(C)C[C@@H]1NC(=O)[C@H](CCCNC(=N)N)NC(=O)[C@H](C(C)C)NC(=O)[C@@H]2CCCN2C(=O)[C@H](C(C)C)NC(=O)[C@@H](CCCNC(=N)N)NC(=O)[C@H](CC(=O)O)NC(=O)[C@@H]2CCCN2C(=O)CN(C)C(=O)[C@H](Cc2ccc(-c3cccc(NC(=O)c4nn(C)c5ncccc45)c3)cc2)NC(=O)[C@H](Cc2ccc(-c3ccccc3)cc2)NC(=O)[C@H](CN2CCOCC2)NC(=O)CSC[C@@H](C(=O)NCC(N)=O)NC1=O [Example 345] ({CH2CO}-[Ala(morpholin-4-yl)][Bip][X9][Sar]PD[dR]VPVRLCG-NH2; thioether N-13) | < 50 nM |
| CC(C)C[C@@H]1NC(=O)[C@H](CCCNC(=N)N)NC(=O)[C@H](C(C)C)NC(=O)[C@@H]2CCCN2C(=O)[C@H](C(C)C)NC(=O)[C@@H](CCCNC(=N)N)NC(=O)[C@H](CC(=O)O)NC(=O)[C@@H]2CCCN2C(=O)CN(C)C(=O)[C@H](Cc2ccc(-c3ccc(NC(=O)c4coc5ccccc45)cc3)cc2)NC(=O)[C@H](Cc2ccc(-c3ccccc3)cc2)NC(=O)[C@H](CN2CCOCC2)NC(=O)CSC[C@@H](C(=O)NCC(N)=O)NC1=O [Example 346] ({CH2CO}-[Ala(morpholin-4-yl)][Bip][X47][Sar]PD[dR]VPVRLCG-NH2; thioether N-13) | < 50 nM |
